According to PubChem BioAssay (NCI):
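GI50: concentration for 50% inhibition of growth. TGI: total growth inhibition.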

Assays:
Test in all cases: NCI tumour cell line growth inhibition, 384-well format
RXF 393 renal = system: RXF 393 renal
NCI-H226 lung = system: NCI-H226 lung
T-47D breast = system: T-47D breast
SF-295 CNS = system: SF-295 CNS
UACC-62 melanoma = system: UACC-62 melanoma
NCI/ADR-RES ovarian = system: NCI/ADR-RES ovarian
CCRF-CEM leukemia = system: CCRF-CEM leukemia
SR leukemia = system: SR leukemia
HOP-62 NSCLC = system: HOP-62 NSCLC
SK-MEL-28 melanoma = system: SK-MEL-28 melanoma
NCI-H522 lung = system: NCI-H522 lung
BT-549 breast = system: BT-549 breast
M14 melanoma = system: M14 melanoma
PC-3 prostate = system: PC-3 prostate
TK-10 renal = system: TK-10 renal
HCC-2998 colon = system: HCC-2998 colon
DU-145 prostate = system: DU-145 prostate
SK-OV-3 ovarian = system: SK-OV-3 ovarian
HL-60(TB) leukemia = system: HL-60(TB) leukemia
IGROV1 ovarian = system: IGROV1 ovarian
MDA-MB-231 breast = system: MDA-MB-231 breast
RPMI-8226 leukemia = system: RPMI-8226 leukemia
MCF7 breast = system: MCF7 breast
OVCAR-4 ovarian = system: OVCAR-4 ovarian
NCI-H460 NSCLC = system: NCI-H460 NSCLC
HCT-15 colon = system: HCT-15 colon
HCT-116 colon = system: HCT-116 colon
ACHN renal = system: ACHN renal
786-0 renal = system: 786-0 renal
CAKI-1 renal = system: CAKI-1 renal
OVCAR-5 ovarian = system: OVCAR-5 ovarian
UACC-257 melanoma = system: UACC-257 melanoma
EKVX NSCLC = system: EKVX NSCLC
HOP-92 NSCLC = system: HOP-92 NSCLC
K-562 leukemia = system: K-562 leukemia
SW-620 colon = system: SW-620 colon
U251 glioblastoma = system: U251 glioblastoma
OVCAR-8 ovarian = system: OVCAR-8 ovarian
LOX IMVI melanoma = system: LOX IMVI melanoma
NCI-H23 lung = system: NCI-H23 lung
COLO 205 colon = system: COLO 205 colon
SF-539 CNS = system: SF-539 CNS
OVCAR-3 ovarian = system: OVCAR-3 ovarian
MALME-3M melanoma = system: MALME-3M melanoma
HS 578T breast = system: HS 578T breast
MDA-MB-468 breast = system: MDA-MB-468 breast
A549 NSCLC = system: A549 NSCLC

Compound `N=C(N)c1ccc2nc(-c3cc(CC(=O)N[C@@H](CC(=O)O)C(=O)O)cc(-c4cc(S(N)(=O)=O)ccc4O)c3O)[nH]c2c1` has a GI50 (RXF 393 renal) of over 100 µM, a TGI (RXF 393 renal) of over 100 µM and a GI50 (NCI-H226 lung) of over 100 µM. The TGI (NCI-H226 lung) was over 100 µM, the GI50 (T-47D breast) was over 100 µM and the TGI (T-47D breast) was over 100 µM. For the same compound, the GI50 (SF-295 CNS) was over 100 µM, the TGI (SF-295 CNS) was over 100 µM and the GI50 (UACC-62 melanoma) was over 100 µM. It also gave a TGI (UACC-62 melanoma) of over 100 µM, a GI50 (NCI/ADR-RES ovarian) of over 100 µM and a TGI (NCI/ADR-RES ovarian) of over 100 µM. For the same compound, the GI50 (CCRF-CEM leukemia) was over 100 µM, the TGI (CCRF-CEM leukemia) was over 100 µM and the GI50 (SR leukemia) was over 100 µM. The TGI (SR leukemia) was over 100 µM, the GI50 (HOP-62 NSCLC) was over 100 µM and the TGI (HOP-62 NSCLC) was over 100 µM. It also gave a GI50 (SK-MEL-28 melanoma) of over 100 µM, a TGI (SK-MEL-28 melanoma) of over 100 µM and a GI50 (NCI-H522 lung) of over 100 µM. For the same compound, the TGI (NCI-H522 lung) was over 100 µM, the GI50 (BT-549 breast) was over 100 µM and the TGI (BT-549 breast) was over 100 µM. The GI50 (M14 melanoma) was over 100 µM, the TGI (M14 melanoma) was over 100 µM and the GI50 (PC-3 prostate) was over 100 µM. For the same compound, the TGI (PC-3 prostate) was over 100 µM, the GI50 (TK-10 renal) was over 100 µM and the TGI (TK-10 renal) was over 100 µM. For the same compound, the GI50 (HCC-2998 colon) was over 100 µM, the TGI (HCC-2998 colon) was over 100 µM and the GI50 (DU-145 prostate) was over 100 µM. The TGI (DU-145 prostate) was over 100 µM, the GI50 (SK-OV-3 ovarian) was over 100 µM and the TGI (SK-OV-3 ovarian) was over 100 µM. The GI50 (HL-60(TB) leukemia) was over 100 µM, the TGI (HL-60(TB) leukemia) was over 100 µM and the GI50 (IGROV1 ovarian) was over 100 µM. The TGI (IGROV1 ovarian) was over 100 µM, the GI50 (MDA-MB-231 breast) was over 100 µM and the TGI (MDA-MB-231 breast) was over 100 µM. It also gave a GI50 (RPMI-8226 leukemia) of over 100 µM, a TGI (RPMI-8226 leukemia) of over 100 µM and a GI50 (MCF7 breast) of over 71.5 µM. For the same compound, the TGI (MCF7 breast) was over 100 µM, the GI50 (OVCAR-4 ovarian) was over 100 µM and the TGI (OVCAR-4 ovarian) was over 100 µM. The GI50 (NCI-H460 NSCLC) was over 100 µM, the TGI (NCI-H460 NSCLC) was over 100 µM and the GI50 (HCT-15 colon) was over 100 µM. For the same compound, the TGI (HCT-15 colon) was over 100 µM, the GI50 (HCT-116 colon) was over 100 µM and the TGI (HCT-116 colon) was over 100 µM. For the same compound, the GI50 (ACHN renal) was over 100 µM, the TGI (ACHN renal) was over 100 µM and the GI50 ([…]-0 renal) was over 100 µM. For the same compound, the TGI (786-0 renal) was over 100 µM, the GI50 (CAKI-1 renal) was over 100 µM and the TGI (CAKI-1 renal) was over 100 µM. The GI50 (OVCAR-5 ovarian) was over 100 µM, the TGI (OVCAR-5 ovarian) was over 100 µM and the GI50 (UACC-257 melanoma) was over 100 µM. It also gave a TGI (UACC-257 melanoma) of over 100 µM, a GI50 (EKVX NSCLC) of over 100 µM and a TGI (EKVX NSCLC) of over 100 µM. The GI50 (HOP-92 NSCLC) was over 100 µM, the TGI (HOP-92 NSCLC) was over 100 µM and the GI50 (K-562 leukemia) was over 100 µM. The TGI (K-562 leukemia) was over 100 µM, the GI50 (SW-620 colon) was over 100 µM and the TGI (SW-620 colon) was over 100 µM. For the same compound, the GI50 (U251 glioblastoma) was over 100 µM, the TGI (U251 glioblastoma) was over 100 µM and the GI50 (OVCAR-8 ovarian) was over 100 µM. The TGI (OVCAR-8 ovarian) was over 100 µM, the GI50 (LOX IMVI melanoma) was over 100 µM and the TGI (LOX IMVI melanoma) was over 100 µM. The GI50 (NCI-H23 lung) was over 100 µM, the TGI (NCI-H23 lung) was over 100 µM and the GI50 (COLO 205 colon) was over 100 µM. It also gave a TGI (COLO 205 colon) of over 100 µM, a GI50 (SF-539 CNS) of over 100 µM and a TGI (SF-539 CNS) of over 100 µM. For the same compound, the GI50 (OVCAR-3 ovarian) was over 100 µM, the TGI (OVCAR-3 ovarian) was over 100 µM and the GI50 (MALME-3M melanoma) was over 100 µM. It also gave a TGI (MALME-3M melanoma) of over 100 µM, a GI50 (HS 578T breast) of over 100 µM and a TGI (HS 578T breast) of over 100 µM. For the same compound, the GI50 (MDA-MB-468 breast) was over 100 µM, the TGI (MDA-MB-468 breast) was over 100 µM and the GI50 (A549 NSCLC) was over 100 µM. It also gave a TGI (A549 NSCLC) of over 100 µM.
